# Tests used:
# [1] = biological target: T1, ATR kinase (full-length ATR) (Homo sapiens, UniProt Q13535); assay: ATR Inhibition Assay (radioactive-phosphate incorporation); format: biochemical; settings: Ki(app); 10 μM ATP, 800 μM target peptide, 5 nM full-length ATR, 25° C.
# T1 construct: Assays were carried out at 25° C. in the presence of 5 nM full-length ATR
# Experimental: Compounds were screened for their ability to inhibit ATR kinase using a radioactive-phosphate incorporation assay. Assays were carried out in a mixture of 50 mM Tris/HCl (pH 7.5), 10 mM MgCl2 and 1 mM DTT. Final substrate concentrations were 10 μM [γ-33P]ATP (3mCi 33P ATP/mmol ATP, Perkin Elmer) and 800 μM target peptide (ASELPASQPQPFSAKKK).
# Assays were carried out at 25° C. in the presence of 5 nM full-length ATR. An assay stock buffer solution was prepared containing all of the reagents listed above, with the exception of ATP and the test compound of interest. 13.5 μL of the stock solution was placed in a 96 well plate followed by addition of 2 μL of DMSO stock containing serial dilutions of the test compound (typically starting from a final concentration of 15 μM with 3-fold serial dilutions) in duplicate (final DMSO concentration 7%). The plate was pre-incubated for 10 minutes at 25° C. and the reaction initiated by addition of 15 μL [γ-33P]ATP (final concentration 10 μM).
# The reaction was stopped after […] by the addition of 30 μL 0.1M phosphoric acid containing 2 mM ATP. A multiscreen phosphocellulose filter 96-well plate (Millipore, Cat no. MAPHN0B50) was pretreated with 100 μL 0.2M phosphoric acid prior to the addition of 45 μL of the stopped assay mixture. The plate was washed with 5×200 μL 0.2M phosphoric acid. After drying, 100 μL Optiphase ‘SuperMix’ liquid scintillation cocktail (Perkin Elmer) was added to the well prior to scintillation counting (1450 Microbeta Liquid Scintillation Counter, Wallac).
# After removing mean background values for all of the data points, Ki(app) data were calculated from non-linear regression analysis of the initial rate data using the Prism software package (GraphPad Prism version 3.0cx for Macintosh, GraphPad Software, San Diego Calif., USA).
# [2] = Pharmacokinetics (clearance and volume of distribution); format: in vivo; settings: for clearance / Vd: in vivo, noncompartmental, intravenous (IV) dosing, species not given; for Vd: read-out: Vss (steady state volume of distribution)
# Text: Noncompartmental pharmacokinetic parameters can be analyzed using Watson Bioanalytical LIMS (Version 7.4; Thermo Fisher Scientific) from either the blood or plasma samples. The following parameters can be estimated following intravenous (IV) dosing: terminal elimination half-life (T1/2=ln(2)/λz, where λz is the first order rate constant associated with the terminal (log-linear) portion of the curve); the area under the curve (AUClast=area under the curve from the time of dosing to the last measurable concentration); the area under the curve extrapolated to infinity (AUC0-∞=AUClast+Clast/λz). The clearance (Cl; Cl=DoseIV/AUC0-∞); the area under the first moment curve (AUMClast=area under the concentration times time versus time curve from the time of dosing to the last measurable concentration); the area under the first moment curve extrapolated to infinity (AUMC0-∞=AUMClast+Clast×t/λz+Clast/λz^2); the mean residence time (MRT=AUMC0-∞/AUC0-∞); and the steady state volume of distribution (Vdss=MRT×Cl).
# Clearance and volume of distribution can also be obtained using methods known to one of skill in the art (see e.g., Handbook of Essential Pharmacokinetics, Pharmacodynamics and Drug Metabolism for Industrial Scientists, Younggil Kwon, pp 18-28 (Noncompartmental Approach)).
# T1 sequence (Q13535 whole entry): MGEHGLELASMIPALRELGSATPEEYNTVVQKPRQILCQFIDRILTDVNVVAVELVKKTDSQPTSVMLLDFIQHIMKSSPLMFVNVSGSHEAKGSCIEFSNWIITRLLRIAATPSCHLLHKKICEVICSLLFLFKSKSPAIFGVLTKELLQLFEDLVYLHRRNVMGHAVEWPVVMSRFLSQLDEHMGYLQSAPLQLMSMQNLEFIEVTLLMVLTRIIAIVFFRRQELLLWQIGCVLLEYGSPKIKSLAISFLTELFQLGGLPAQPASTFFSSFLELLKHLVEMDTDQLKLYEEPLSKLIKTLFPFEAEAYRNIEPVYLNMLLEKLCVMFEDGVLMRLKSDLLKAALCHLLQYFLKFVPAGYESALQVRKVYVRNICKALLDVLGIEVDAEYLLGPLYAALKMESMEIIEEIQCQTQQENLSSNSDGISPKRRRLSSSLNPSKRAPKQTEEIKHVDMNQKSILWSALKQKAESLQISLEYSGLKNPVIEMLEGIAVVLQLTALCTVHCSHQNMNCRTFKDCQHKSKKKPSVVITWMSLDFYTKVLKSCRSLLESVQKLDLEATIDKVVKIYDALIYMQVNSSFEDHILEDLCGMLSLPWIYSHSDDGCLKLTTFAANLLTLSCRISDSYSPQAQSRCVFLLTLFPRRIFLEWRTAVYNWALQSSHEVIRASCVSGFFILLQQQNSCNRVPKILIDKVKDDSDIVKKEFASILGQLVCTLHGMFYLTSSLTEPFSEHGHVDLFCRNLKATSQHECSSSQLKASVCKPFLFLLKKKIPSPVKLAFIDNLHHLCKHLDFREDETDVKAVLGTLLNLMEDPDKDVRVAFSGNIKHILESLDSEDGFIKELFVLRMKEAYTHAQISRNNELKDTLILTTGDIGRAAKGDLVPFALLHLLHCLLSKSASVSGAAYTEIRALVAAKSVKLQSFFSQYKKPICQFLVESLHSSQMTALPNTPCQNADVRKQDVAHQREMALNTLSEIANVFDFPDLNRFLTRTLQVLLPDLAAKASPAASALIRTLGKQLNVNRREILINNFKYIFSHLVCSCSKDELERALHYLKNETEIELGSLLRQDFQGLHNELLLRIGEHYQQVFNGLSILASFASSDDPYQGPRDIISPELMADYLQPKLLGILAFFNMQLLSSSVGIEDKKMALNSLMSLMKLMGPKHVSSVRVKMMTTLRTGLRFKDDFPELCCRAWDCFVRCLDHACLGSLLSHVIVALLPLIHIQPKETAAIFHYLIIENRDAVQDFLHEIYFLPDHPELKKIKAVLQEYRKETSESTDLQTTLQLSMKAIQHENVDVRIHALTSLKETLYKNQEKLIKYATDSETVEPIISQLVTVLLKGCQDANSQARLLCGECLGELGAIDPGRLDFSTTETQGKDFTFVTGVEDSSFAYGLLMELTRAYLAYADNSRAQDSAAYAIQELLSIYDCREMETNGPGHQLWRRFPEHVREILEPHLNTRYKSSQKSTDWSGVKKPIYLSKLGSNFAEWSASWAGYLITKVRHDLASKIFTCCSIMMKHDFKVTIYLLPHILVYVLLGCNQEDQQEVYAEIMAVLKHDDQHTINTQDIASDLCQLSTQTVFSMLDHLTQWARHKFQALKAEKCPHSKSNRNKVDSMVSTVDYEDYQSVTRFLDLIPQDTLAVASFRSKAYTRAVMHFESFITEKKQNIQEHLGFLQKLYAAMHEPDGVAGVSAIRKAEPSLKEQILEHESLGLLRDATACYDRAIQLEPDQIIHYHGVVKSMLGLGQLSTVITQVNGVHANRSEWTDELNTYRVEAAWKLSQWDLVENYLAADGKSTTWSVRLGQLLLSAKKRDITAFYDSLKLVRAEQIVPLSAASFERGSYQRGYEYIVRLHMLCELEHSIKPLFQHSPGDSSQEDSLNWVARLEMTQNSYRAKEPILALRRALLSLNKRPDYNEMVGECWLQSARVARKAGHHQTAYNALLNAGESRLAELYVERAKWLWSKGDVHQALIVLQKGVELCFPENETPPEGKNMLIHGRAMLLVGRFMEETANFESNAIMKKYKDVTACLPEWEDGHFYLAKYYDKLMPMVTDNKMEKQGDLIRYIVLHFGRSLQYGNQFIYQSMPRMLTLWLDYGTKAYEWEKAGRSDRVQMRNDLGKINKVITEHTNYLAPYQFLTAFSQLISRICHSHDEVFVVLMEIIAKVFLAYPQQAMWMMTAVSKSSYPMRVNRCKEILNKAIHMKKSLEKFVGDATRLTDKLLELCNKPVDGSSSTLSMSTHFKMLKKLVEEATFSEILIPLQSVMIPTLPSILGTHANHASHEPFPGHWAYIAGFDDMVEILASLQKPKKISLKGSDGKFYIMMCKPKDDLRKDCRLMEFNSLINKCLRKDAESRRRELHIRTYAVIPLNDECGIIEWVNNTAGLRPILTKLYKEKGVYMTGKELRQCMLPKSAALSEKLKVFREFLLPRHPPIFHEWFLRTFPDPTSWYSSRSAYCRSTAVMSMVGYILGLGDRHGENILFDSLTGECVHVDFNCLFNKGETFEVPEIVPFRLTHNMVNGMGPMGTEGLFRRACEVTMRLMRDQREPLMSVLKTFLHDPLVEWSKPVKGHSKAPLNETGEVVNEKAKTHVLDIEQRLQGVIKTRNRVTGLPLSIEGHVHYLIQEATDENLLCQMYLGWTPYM
SMILES,Ki [1] [nM],further results
Cc1ccccc1-c1cc(-c2nc(-c3ccc(S(=O)(=O)C4CCCNC4)cc3)cnc2N)on1 (stereo not shown) [Compound I-24],10 to 25,–
"Nc1ncc(-c2ccc(S(=O)(=O)C3CCCNC3)cc2)nc1-c1cc(-c2cccs2)no1 (stereo not shown) [Compound I-3, 5-(4-(piperidin-3-ylsulfonyl)phenyl)-3-(3-(thiophen-2-yl)isoxazol-5-yl)pyrazin-2-amine]",≤ 5,clearance [2]: 3.3 mL/min/kg; Vd [2]: 1 L/kg
Nc1ncc(-c2ccc(S(=O)(=O)C3CCCNC3)cc2)nc1-c1nnc(-c2ccccc2)o1 (stereo not shown) [Compound I-19],≤ 5,–
"Nc1ncc(-c2ccc(S(=O)(=O)C3CCCNC3)cc2)nc1-c1cc(-c2ccc(O)cc2)no1 (stereo not shown) [Compound I-4, 4-(5-(3-amino-6-(4-(piperidin-3-ylsulfonyl)phenyl)pyrazin-2-yl)isoxazol-3-yl)phenol]",≤ 5,–
"Cc1ccsc1-c1nnc(-c2nc(-c3ccc(S(=O)(=O)C4CCCNC4)cc3)cnc2N)o1 (stereo not shown) [Compound I-10, 3-(5-(3-methylthiophen-2-yl)-1,3,4-oxadiazol-2-yl)-5-(4-(piperidin-3-ylsulfonyl)phenyl)pyrazin-2-amine]",≤ 5,PK properties (clearance and volume of distribution) compared with similar compounds ([2]; compared to a similar 4-piperidine compound (Compound A)): much lower clearance and volume of distribution; clearance [2]: 9.3 mL/min/kg; Vd [2]: 3 L/kg
Nc1ncc(-c2ccc(S(=O)(=O)C3CCCNC3)cc2)nc1-c1cc(-c2ccccc2F)no1 (stereo not shown) [Compound I-22],10 to 25,–
"Nc1ncc(-c2ccc(S(=O)(=O)C3CCCNC3)cc2)nc1-c1nnc(-c2ccc(C3COCCN3)cc2)o1 (stereo not shown) [Compound I-17, 3-(5-(4-(morpholin-3-yl)phenyl)-1,3,4-oxadiazol-2-yl)-5-(4-(piperidin-3-ylsulfonyl)phenyl)pyrazin-2-amine]",≤ 5,–
"Cc1ccsc1-c1cc(-c2nc(-c3ccc(S(=O)(=O)C4CCCNC4)cc3)cnc2N)on1 (stereo not shown) [Compound I-2, 3-(3-(3-methylthiophen-2-yl)isoxazol-5-yl)-5-(4-(piperidin-3-ylsulfonyl)phenyl)pyrazin-2-amine]",≤ 5,–
"Nc1ncc(-c2ccc(S(=O)(=O)C3CCCNC3)cc2)nc1-c1cc(-c2ccsc2)no1 (stereo not shown) [Compound I-8, 5-(4-(piperidin-3-ylsulfonyl)phenyl)-3-(3-(thiophen-3-yl)isoxazol-5-yl)pyrazin-2-amine]",≤ 5,–
Nc1ncc(-c2ccc(S(=O)(=O)C3CCCNC3)cc2)nc1-c1cc(-c2ccccc2O)no1 (stereo not shown) [Compound I-26],≤ 5,–
"COc1ccsc1-c1nnc(-c2nc(-c3ccc(S(=O)(=O)C4CCCNC4)cc3)cnc2N)o1 (stereo not shown) [Compound I-13, 3-(5-(3-methoxythiophen-2-yl)-1,3,4-oxadiazol-2-yl)-5-(4-(piperidin-3-ylsulfonyl)phenyl)pyrazin-2-amine]",≤ 5,–
"Nc1ncc(-c2ccc(S(=O)(=O)C3CCCNC3)cc2)nc1-c1nnc(-c2sccc2F)o1 (stereo not shown) [Compound I-11, 3-(5-(3-fluorothiophen-2-yl)-1,3,4-oxadiazol-2-yl)-5-(4-(piperidin-3-ylsulfonyl)phenyl)pyrazin-2-amine]",≤ 5,–
"Nc1ncc(-c2ccc(S(=O)(=O)C3CCCNC3)cc2)nc1-c1cc(-c2ccc(CNC3CCOCC3)cc2)no1 (stereo not shown) [Compound I-6, 5-(4-(piperidin-3-ylsulfonyl)phenyl)-3-(3-(4-(((tetrahydro-2H-pyran-4-yl)amino)methyl)phenyl)isoxazol-5-yl)pyrazin-2-amine]",≤ 5,–
Nc1ncc(-c2ccc(S(=O)(=O)C3CCCNC3)cc2)nc1-c1cc(-c2ccc(CO)cc2)no1 (stereo not shown) [Compound I-21],5 to 10,–
"Nc1ncc(-c2ccc(S(=O)(=O)C3CCCNC3)cc2)nc1-c1cc(-c2nccs2)no1 (stereo not shown) [Compound I-9, 5-(4-(piperidin-3-ylsulfonyl)phenyl)-3-(3-(thiazol-2-yl)isoxazol-5-yl)pyrazin-2-amine]",≤ 5,–
"CNCc1ccc(-c2cc(-c3nc(-c4ccc(S(=O)(=O)C5CCCNC5)cc4)cnc3N)on2)cc1 (stereo not shown) [Compound I-5, 3-(3-(4-((methylamino)methyl)phenyl)isoxazol-5-yl)-5-(4-(piperidin-3-ylsulfonyl)phenyl)pyrazin-2-amine]",≤ 5,–
"Cc1ccsc1-c1nnc(-c2nc(-c3ccc(S(=O)(=O)[C@H]4CCCNC4)cc3)cnc2N)o1 [Compound I-15, (S)-3-(5-(3-methylthiophen-2-yl)-1,3,4-oxadiazol-2-yl)-5-(4-(piperidin-3-ylsulfonyl)phenyl)pyrazin-2-amine]",≤ 5,–
COc1ccccc1-c1cc(-c2nc(-c3ccc(S(=O)(=O)C4CCCNC4)cc3)cnc2N)on1 (stereo not shown) [Compound I-23],5 to 10,–
Nc1ncc(-c2ccc(S(=O)(=O)C3CCCNC3)cc2)nc1-c1cc(-c2ccccc2Cl)no1 (stereo not shown) [Compound I-25],10 to 25,–
"Cc1ccsc1-c1nnc(-c2nc(-c3ccc(S(=O)(=O)C4CCNCC4)cc3)cnc2N)o1 [Compound A, reference compound]",–,clearance [2]: 34.3 mL/min/kg; Vd [2]: 12.5 L/kg
"Cc1ccsc1-c1nnc(-c2nc(-c3ccc(S(=O)(=O)[C@@H]4CCCNC4)cc3)cnc2N)o1 [Compound I-16, (R)-3-(5-(3-methylthiophen-2-yl)-1,3,4-oxadiazol-2-yl)-5-(4-(piperidin-3-ylsulfonyl)phenyl)pyrazin-2-amine]",≤ 5,–
"Nc1ncc(-c2ccc(S(=O)(=O)[C@@H]3CCCNC3)cc2)nc1-c1cc(-c2ccc([C@@H]3COCCN3)cc2)no1 [Compound I-7, 3-(3-(4-((R)-morpholin-3-yl)phenyl)isoxazol-5-yl)-5-(4-((R)-piperidin-3-ylsulfonyl)phenyl)pyrazin-2-amine]",≤ 5,–
"Nc1ncc(-c2ccc(S(=O)(=O)C3CCCNC3)cc2)nc1-c1nnc(-c2ccccc2)s1 (stereo not shown) [Compound I-18, 3-(5-phenyl-1,3,4-thiadiazol-2-yl)-5-(4-(piperidin-3-ylsulfonyl)phenyl)pyrazin-2-amine]",≤ 5,–
"Nc1ncc(-c2ccc(S(=O)(=O)C3CCCNC3)cc2)nc1-c1cc(-c2ccccc2)no1 (stereo not shown) [Compound I-1, 3-(3-phenylisoxazol-5-yl)-5-(4-(piperidin-3-ylsulfonyl)phenyl)pyrazin-2-amine]",≤ 5,clearance [2]: 0.9 mL/min/kg; Vd [2]: 0.9 L/kg
"Nc1ncc(-c2ccc(S(=O)(=O)C3CCCNC3)cc2)nc1-c1nnc(-c2cccs2)o1 (stereo not shown) [Compound I-12, 5-(4-(piperidin-3-ylsulfonyl)phenyl)-3-(5-(thiophen-2-yl)-1,3,4-oxadiazol-2-yl)pyrazin-2-amine]",≤ 5,–
Nc1ncc(-c2ccc(S(=O)(=O)C3CCCNC3)cc2)nc1-c1cc(-c2ccc(OCCO)cc2)no1 (stereo not shown) [Compound I-20],5 to 10,–
"COc1ccccc1-c1nnc(-c2nc(-c3ccc(S(=O)(=O)C4CCCNC4)cc3)cnc2N)o1 (stereo not shown) [Compound I-14, 3-(5-(2-methoxyphenyl)-1,3,4-oxadiazol-2-yl)-5-(4-(piperidin-3-ylsulfonyl)phenyl)pyrazin-2-amine]",≤ 5,clearance [2]: 16 mL/min/kg; Vd [2]: 2 L/kg
